Laboratory results reported in patent publication US20110190365A1, “Insecticidal 4-phenyl-1H-pyrazoles” (Bayer Crop Science AG, priority 2008, published 2011).
Read-outs that look alike come from different tables or passages of the source.

Columns and labels:
[1] = test system: larvae of the mustard beetle (Phaedon cochleariae); assay: Phaedon cochleariae test (PHAECO spray treatment); assay type: in vivo; details: application rate 500 g/ha, Chinese cabbage leaf discs sprayed, after 7 days; for pest or weed control at 500 g/ha: Phaedon cochleariae, foliar, 168 h, read-out: effect in % (beetle larvae killed)
Protocol: Phaedon cochleariae Test (PHAECO Spray Treatment)
(§1) Solvent: 78.0 parts by weight of acetone • • 1.5 parts by weight of dimethylformamide Emulsifier: 0.5 part by weight of alkylaryl polyglycol ether
(§2) To produce a suitable preparation of active compound, 1 part by weight of active compound is mixed with the stated amounts of solvent and emulsifier, and the concentrate is diluted with emulsifier-containing water to the desired concentration.
Discs of Chinese cabbage (Brassica pekinensis) are sprayed with an active compound preparation of the desired concentration and, after drying, populated with larvae of the mustard beetle (Phaedon cochleariae).
After 7 days, the effect in % is determined. 100% means that all beetle larvae have been killed; 0% means that none of the beetle larvae have been killed.

[2] = log P by HPLC on a reversed-phase column (C18), EEC Directive 79/831 Annex V.A8; assay type: physicochemical
Protocol: The stated log P values were determined in accordance with EEC Directive 79/831 Annex V.A8 by HPLC (High Performance Liquid Chromatography) using a reversed-phase column (C18).

[3] = test system: stage 3 Spodoptera litura larvae; assay: Spodoptera litura larvae test; assay type: in vivo; details: active compound concentration 500 ppm, sweet potato leaf dip, after 7 days, mean of two dishes
Protocol: Spodoptera litura Larvae Test
(§3) Solvent: 3 parts by weight of dimethylformamide Emulsifier: 1 part by weight of polyoxyethylene alkylphenyl ether
To prepare a suitable active compound, 1 part by weight of active compound is mixed with the stated amount of solvent comprising the stated amount of emulsifier, and the mixture is diluted with water to the specified concentration.
Sweet potato leaves are dipped into the sample solution diluted with water to the specified concentration and the leaves treated in this manner are, after the solution adhering to the leaves has dried in air, transferred into a laboratory dish which has a diameter of 9 cm and in which there are 10 stage 3 Spodoptera litura larvae. The dish is then placed in a temperature-controlled room at 25° C., sweet potato leaves are then added to the dish on day two and day four and the number of dead insects is determined after 7 days and used to calculate the insecticidal ratio.
The results are the means of two laboratory dishes per group in this test.

[4] = test system: stage 2 Aulacophora femoralis larvae; assay: Aulacophora femoralis test (spray test); assay type: in vivo; details: active compound concentration 500 ppm, cucumber leaf dip, after 7 days
Protocol: Aulacophora femoralis Test (Spray Test)
as §3
To prepare a suitable active compound formulation, 1 part by weight of the active compound is mixed with the stated amount of solvent comprising the stated amount of emulsifier, and the mixture is diluted with water to a specified concentration.
Cucumber leaves are dipped into a dilute aqueous solution of an active compound at the specified concentration prepared in the same manner as in the test described above, air-dried and transferred into a plastic dish with sterilized black soil. 5 stage 2 Aulacophora femoralis larvae are transferred into this dish. The dish is then placed into a temperature-controlled room at 25° C. After 7 days, the number of dead larvae is counted to calculate the mortality.

[5] = test system: caterpillars of the armyworm (Spodoptera frugiperda); assay: Spodoptera frugiperda test (SPODFR spray treatment); assay type: in vivo; details: application rate 500 g/ha, maize leaf discs sprayed, after 7 days
Protocol: Spodoptera frugiperda Test (SPODFR Spray Treatment)
as §1, §2
Discs of maize leaves (Zea mays) are sprayed with an active compound preparation of the desired concentration and, after drying, populated with caterpillars of the armyworm (Spodoptera frugiperda).
After 7 days, the effect in % is determined 100% means that all caterpillars have been killed; 0% means that none of the caterpillars have been killed.

[6] = test system: green peach aphid (Myzus persicae); assay: Myzus persicae test (MYZUPE spray treatment); assay type: in vivo; details: application rate 500 g/ha, Chinese cabbage leaf discs sprayed, after 6 days
Protocol: Myzus persicae Test (MYZUPE Spray Treatment)
as §1, §2
Discs of Chinese cabbage (Brassica pekinensis) infected by all stages of the green peach aphid (Myzus persicae) are sprayed with an active compound preparation of the desired concentration.
After 6 days, the effect in % is determined. 100% means that all of the aphids have been killed; 0% means that none of the aphids have been killed.

[7] = HPLC, reversed-phase C18, mobile phase with formic acid, read-out: log P (HCOOH)
[8] = HPLC, reversed-phase C18, mobile phase with formic acid

SMILES: Cc1cc(-n2nc(C(F)(F)F)c(-c3cc(Cl)cc(Cl)c3)c2Br)ccc1C(=O)NC(C)C(F)(F)F (centres unmarked) [I-A-Q2-024, 4-[5-Bromo-4-(3,5-dichlorophenyl)-3-trifluoromethylpyrazol-1-yl]-2-methyl-N-(2,2,2-trifluoro-1-mmethylethyl)benzamide]
- pest or weed control at 500 g/ha [1]: > 80%
- chromatographic logP [2, 7]: 5.53

SMILES: Cc1cc(-n2nc(C(F)(F)F)c(-c3cc(Cl)cc(Cl)c3)c2N)ccc1C(=O)NCc1ccccn1 [I-A-Q2-012, 4-[5-Amino-4-(3,5-dichlorophenyl)-3-trifluoromethylpyrazol-1-yl]-2-methyl-N-pyridin-2-ylmethylbenzamide]
- pest or weed control at 500 g/ha [1]: > 80%
- chromatographic logP [2, 7]: 3.35

SMILES: COC(=O)c1ccc(-n2nc(C(F)(F)F)c(-c3cc(Cl)cc(Cl)c3)c2N)cc1C [I-A-Q4-011, Methyl 4-[5-amino-4-(3,5-dichlorophenyl)-3-trifluoromethylpyrazol-1-yl]-2-methylbenzoate]
- pest or weed control at 500 g/ha [1]: > 80%
- chromatographic logP [2, 7]: 5.08

SMILES: Cc1cc(-n2nc(C(F)(F)F)c(-c3ccccc3Br)c2N)ccc1C(=O)NC(C)c1ccccn1 (centres unmarked) [I-A-Q2-420]
- effect in % (beetle larvae killed) [1]: 100%
- log P (HCOOH) ([2]; HCOOH): I-A-Q2-420: log P (HCOOH): 2.81

SMILES: Cc1cc(-n2nc(C(F)(F)F)c(-c3ccccc3Cl)c2N)ccc1C(=O)NC(C)c1ccccn1 (centres unmarked) [I-A-Q2-415]
- effect in % (beetle larvae killed) [1]: 100%
- log P (HCOOH) ([2]; HCOOH): I-A-Q2-415: log P (HCOOH): 2.71

SMILES: O=C(NCc1ccccn1)c1ccc(-n2cc(-c3cc(Cl)cc(Cl)c3)c(C(F)(F)F)n2)cc1[N+](=O)[O-] [I-A-Q2-003]
- kill of the insect larvae [3]: 100%

SMILES: Cc1cc(-n2nc(C(F)(F)F)c(-c3ccccc3Br)c2N)ccc1C(=O)NCc1ccccn1 [I-A-Q2-421]
- effect in % (beetle larvae killed) [1]: 100%
- log P (HCOOH) ([2]; HCOOH): I-A-Q2-421: log P (HCOOH): 2.53

SMILES: CC(NC(=O)c1ccc(-n2cc(-c3cc(Cl)cc(Cl)c3)cn2)cc1C(F)(F)F)C(F)(F)F (centres unmarked) [I-A-Q2-006]
- kill of the insect larvae [3]: 100%

SMILES: CCOC(=O)c1ccc(-n2cc(-c3cc(Cl)cc(Cl)c3)c(C(F)(F)F)n2)cc1C(F)(F)F [I-A-Q4-001, Ethyl 4-[4-(3,5-dichlorophenyl)-3-trifluoromethylpyrazol-1-yl]-2-trifluoromethylbenzoate]
- kill of the insect larvae [3]: 80%

SMILES: CC(NC(=O)c1ccc(-n2cc(-c3cc(Cl)cc(Cl)c3)c(C(F)(F)F)n2)cc1C(F)(F)F)C(F)(F)F (centres unmarked) [I-A-Q2-005]
- kill of the insects [4]: 100%
- kill of the insect larvae [3]: 100%

SMILES: O=C(NCC(F)(F)F)c1ccc(-n2cc(-c3cc(Cl)cc(Cl)c3)c(C(F)(F)F)n2)cc1C(F)(F)F [I-A-Q2-002, 4-[4-(3,5-Dichlorophenyl)-3-trifluoromethylpyrazol-1-yl]-N-(2,2,2-trifluoroethyl)-2-trifluoromethylbenzamide]
- kill of the insects [4]: 100%
- kill of the insect larvae [3]: 100%
- chromatographic logP ([2]; pH 2, read-out: log P (pH 2)): 5.16
- chromatographic logP ([2]; pH 7.5, read-out: log P (pH 7.5)): 5.14

SMILES: CSc1c(-c2cc(Cl)cc(Cl)c2)c(C(F)(F)F)nn1-c1ccc(C(=O)NC(C)C(F)(F)F)c(C)c1 (centres unmarked) [I-A-Q2-027, 4-[4-(3,5-Dichlorophenyl)-5-methylsulphanyl-3-trifluoromethylpyrazol-1-yl]-2-methyl-N-(2,2,2-trifluoro-1-methylethyl)benzamide]
- pest or weed control at 500 g/ha [1]: > 80%
- chromatographic logP [2, 7]: 5.48

SMILES: Cc1cc(-n2nc(C(F)(F)F)c(-c3cc(Cl)cc(Cl)c3)c2I)ccc1C(=O)NCc1ccccn1 [I-A-Q2-025, 4-[4-(3,5-Dichlorophenyl)-5-iodo-3-trifluoromethylpyrazol-1-yl]-2-methyl-N-pyridin-2-ylmethylbenzamide]
- pest or weed control at 500 g/ha [1]: > 80%
- chromatographic logP [2, 7]: 4.29

SMILES: Cc1cc(-n2nc(C(F)(F)F)c(-c3cccc(Br)c3)c2N)ccc1C(=O)NCc1ncccn1 [I-A-Q2-417]
- effect in % (beetle larvae killed) [1]: 100%
- log P (HCOOH) ([2]; HCOOH): I-A-Q2-417: log P (HCOOH): 3.13

SMILES: O=[N+]([O-])c1ccc(-n2cc(-c3cc(Cl)cc(Cl)c3)c(C(F)(F)F)n2)cc1C(F)(F)F [I-A-Q4-006]
- kill of the insect larvae [3]: 80%

SMILES: N#Cc1cc(-n2nc(C(F)(F)F)c(-c3cc(Cl)cc(C(F)(F)F)c3)c2N)ccc1F [I-A-Q4-009, 5-[5-Amino-4-(3-chloro-5-trifluoromethylphenyl)-3-trifluoromethylpyrazol-1-yl]-2-fluorobenzonitrile]
- pest or weed control at 500 g/ha [1]: > 80%
- chromatographic logP [2, 7]: 4.54

SMILES: N#Cc1cc(-n2nc(C(F)(F)F)c(-c3cc(Cl)cc(C(F)(F)F)c3)c2N)ccc1-n1cncn1 [I-A-Q1-001, 5-[5-Amino-4-(3-chloro-5-trifluoromethylphenyl)-3-trifluoromethylpyrazol-1-yl]-2-[1,2,4]triazol-1-ylbenzonitrile]
- pest or weed control at 500 g/ha [1]: > 80%
- chromatographic logP [2, 7]: 3.92

SMILES: Cc1cc(-n2nc(C(F)(F)F)c(-c3ccccc3Cl)c2N)ccc1C(=O)NCc1ncccn1 [I-A-Q2-414]
- effect in % (beetle larvae killed) [1]: 100%
- log P (HCOOH) ([2]; HCOOH): I-A-Q2-414: log P (HCOOH): 2.72

SMILES: CSc1cc(-n2nc(C(F)(F)F)c(-c3cc(Cl)cc(Cl)c3)c2N)ccc1C(=O)NCc1ccccn1 [I-A-Q2-409]
- effect in % (caterpillars killed) [5]: 83%
- log P (HCOOH) ([2]; HCOOH): I-A-Q2-409: log P (HCOOH): 3.38

SMILES: O=C(NCC(F)(F)F)c1ccc(-n2cc(-c3cc(C(F)(F)F)cc(C(F)(F)F)c3)c(C(F)(F)F)n2)cc1C(F)(F)F [I-A-Q2-010]
- kill of the insects [4]: 100%
- kill of the insect larvae [3]: 100%

SMILES: Cc1cc(-n2nc(C(F)(F)F)c(-c3ccc(Cl)cc3Cl)c2N)ccc1C(=O)NC(C)c1ccccn1 (centres unmarked) [I-A-Q2-412]
- effect in % (beetle larvae killed) [1]: 100%
- log P (HCOOH) ([2]; HCOOH): I-A-Q2-412: log P (HCOOH): 3.29

SMILES: O=C(NCc1ccccn1)c1ccc(-n2cc(-c3cc(Cl)cc(Cl)c3)c(C(F)(F)F)n2)cc1C(F)(F)F [I-A-Q2-001]
- kill of the insect larvae [3]: 100%
- log P (pH 2) ([2]; pH 2): I-A-Q2-001: log P (pH 2): 4.02
- log P (pH 7.5) ([2]; pH 7.5): log P (pH 7.5): 4.74

SMILES: CCS(=O)(=O)c1ncn(-c2ccc(-n3nc(C(F)(F)F)c(-c4cc(Cl)cc(Cl)c4)c3N)cc2C#N)n1 [I-A-Q1-087]
- effect in % (beetle larvae killed) [1]: 100%
- log P (HCOOH) [2, 8]: I-A-Q1-087: log P (HCOOH): 3.78

SMILES: N#Cc1cc(-n2nc(C(F)(F)F)c(-c3cc(Cl)cc(Cl)c3)c2N)ccc1-n1cnc(S)n1 [I-A-Q1-089]
- effect in % (beetle larvae killed) [1]: 83%
- effect in % (aphids killed) [6]: 90%
- log P (HCOOH) [2, 8]: I-A-Q1-089: log P (HCOOH): 3.53

SMILES: Cc1cc(-n2nc(C(F)(F)F)c(-c3ccccc3Br)c2N)ccc1C(=O)NCc1ncccn1 [I-A-Q2-419]
- effect in % (beetle larvae killed) [1]: 100%
- log P (HCOOH) ([2]; HCOOH): I-A-Q2-419: log P (HCOOH): 2.68

SMILES: N#Cc1cc(-n2nc(C(F)(F)F)c(-c3cc(Cl)cc(Cl)c3)c2N)ccc1-n1cnc(Cl)n1 [I-A-Q1-091]
- effect in % (beetle larvae killed) [1]: 100%
- effect in % (caterpillars killed) [5]: 100%
- log P (HCOOH) [2, 8]: I-A-Q1-091: log P (HCOOH): 4.17
